Paper PMC11813143, “HBV polymerase recruits the phosphatase PP1 to dephosphorylate HBc-Ser170 to complete encapsidation” (PLOS Pathogens, 2025)
Where no end group is shown, it is not given here.

Test system: C-S170 Ab
Assay: ELISA binding of immobilized HBc CTD peptides to C-S170 Ab
Design: species or system rabbit
Details: Fig 1C; for O.D. Mean: mean of n = 2
Description: To quantify the binding specificity of C-S170 Ab with non-phosphorylated HBc-Ser170, a flat-bottomed 96-well plate was coated with 100 ng of various peptides, including the non-phosphorylated and phosphorylated peptides covering Ser150, Ser162 and Ser170, and then the C-S170 Ab was added to the wells. For the competition of various peptides to C-S170 Ab, the 96-well plate was coated with 100 ng of non-phosphorylated HBc-Ser170 peptide and then a preincubated mixture containing 100 ng of peptide and the C-S170 Ab was added to the wells. After incubation with rabbit IgG conjugated with HRP, TMB substrate and a stop solution were added. The absorbance at a wavelength of 450 nm (A450) with a reference wavelength of 650 nm was measured using a microplate reader. GraphPad Prism 5 software was used to generate bar graphs and calculate Kd values, binding percentages, and inhibition percentages.

## PRRRRSQSPRRRR [Ser170]
[Ab] 0.0001 ng/mL
  O.D. Mean: 0.008
[Ab] 0.0001 ng/mL, replicate 1
  O.D.: 0.008
[Ab] 0.0001 ng/mL, replicate 2
  O.D.: 0.008
[Ab] 0.001 ng/mL
  O.D. Mean: 0.032
[Ab] 0.001 ng/mL, replicate 1
  O.D.: 0.034
[Ab] 0.001 ng/mL, replicate 2
  O.D.: 0.03
[Ab] 0.01 ng/mL
  O.D. Mean: 0.271
[Ab] 0.01 ng/mL, replicate 1
  O.D.: 0.255
[Ab] 0.01 ng/mL, replicate 2
  O.D.: 0.288
[Ab] 0.1 ng/mL
  O.D. Mean: 1.801
[Ab] 0.1 ng/mL, replicate 1
  O.D.: 1.753
[Ab] 0.1 ng/mL, replicate 2
  O.D.: 1.85
